Patent US20030143729A1 (Synaptic Pharmaceutical Corporation, priority 1992, published 2003)
Read-outs that look alike come from different tables or passages of the source.

Assays:
GAT-3 = molecular target: T1, GAT-3 (Rattus norvegicus, UniProt P31647); assay: [3H]GABA uptake by COS cells transfected with GAT-3 (rB8b or K438-rB8b); assay type: cell-based
T1 sequence (P31647 1-627): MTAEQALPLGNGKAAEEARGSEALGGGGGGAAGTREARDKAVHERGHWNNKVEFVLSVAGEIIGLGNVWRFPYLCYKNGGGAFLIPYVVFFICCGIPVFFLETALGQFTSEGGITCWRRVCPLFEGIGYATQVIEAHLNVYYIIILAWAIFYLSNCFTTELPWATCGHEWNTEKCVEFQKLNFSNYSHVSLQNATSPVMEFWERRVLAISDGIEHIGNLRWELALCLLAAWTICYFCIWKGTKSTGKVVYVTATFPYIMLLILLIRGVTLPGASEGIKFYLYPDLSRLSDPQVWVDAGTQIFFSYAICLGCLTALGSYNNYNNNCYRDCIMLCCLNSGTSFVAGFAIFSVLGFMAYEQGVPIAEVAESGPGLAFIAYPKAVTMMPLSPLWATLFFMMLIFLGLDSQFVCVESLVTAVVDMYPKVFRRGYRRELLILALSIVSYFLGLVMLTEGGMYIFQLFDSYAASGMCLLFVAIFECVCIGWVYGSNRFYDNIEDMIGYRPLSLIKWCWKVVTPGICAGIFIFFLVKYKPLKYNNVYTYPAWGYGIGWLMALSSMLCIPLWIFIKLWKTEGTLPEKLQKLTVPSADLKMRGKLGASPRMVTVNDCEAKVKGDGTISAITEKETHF

rat GAT-3 = molecular target: T2, rat GAT-3 (Rattus norvegicus, UniProt P31647)
T2 sequence (P31647 54-627 limits assumed): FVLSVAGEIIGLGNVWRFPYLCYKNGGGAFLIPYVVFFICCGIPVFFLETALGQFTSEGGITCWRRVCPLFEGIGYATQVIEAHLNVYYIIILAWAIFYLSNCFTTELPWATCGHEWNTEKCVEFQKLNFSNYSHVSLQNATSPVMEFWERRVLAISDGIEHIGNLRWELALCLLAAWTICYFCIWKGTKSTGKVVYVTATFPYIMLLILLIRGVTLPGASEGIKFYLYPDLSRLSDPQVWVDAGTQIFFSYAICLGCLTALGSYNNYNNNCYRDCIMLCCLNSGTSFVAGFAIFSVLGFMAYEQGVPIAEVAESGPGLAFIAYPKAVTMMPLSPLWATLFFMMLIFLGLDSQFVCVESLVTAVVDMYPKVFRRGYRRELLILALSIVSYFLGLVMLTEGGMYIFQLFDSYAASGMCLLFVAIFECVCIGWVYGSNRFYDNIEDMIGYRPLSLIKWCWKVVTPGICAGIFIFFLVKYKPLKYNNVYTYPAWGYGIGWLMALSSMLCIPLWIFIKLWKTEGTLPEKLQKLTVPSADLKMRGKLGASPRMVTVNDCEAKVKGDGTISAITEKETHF
Method: Cells grown in 24-well plates were washed 3× with HEPES-buffered saline (HBS, in mM: NaCl, 150; HEPES, 20; CaCl2, 1; glucose, 10; KCl, 5; MgCl2, 1; pH 7.4) and allowed to equilibrate on a 37° C. slide warmer. After 10 minutes the medium was removed and unlabeled drugs in HBS were added (450 μl/well). […] Plates were incubated at 37° C. for 10 minutes, then washed rapidly 3× with ice-cold HBS, using a 24-position plate washer (Brandel, Gaithersburg, Mass.; model PW-12). Cells were solubilized with 0.05% sodium deoxycholate/0.1N NaOH (0.25 ml/well), an aliquot neutralized with 1N HCl, and radioactivity was determined by scintillation counting. Protein was quantified in an aliquot of the solubilized cells using a BIO-RAD protein assay kit, according to the manufacturer's directions.
Lipophilic inhibitors were dissolved in DMSO.
Data Analysis: Competition curves were conducted in duplicate, using 10 concentrations of unlabeled drug.
COS cells grown in 75 cm^2 or 150 cm^2 flasks in DMEM with 10% bovine calf serum, 100 U/ml penicillin G, and 100 μg/ml streptomycin sulfate (37° C., 5% CO2) were transfected using DEAE-dextran. On the day following transfection the cells were split into 24-well assay plates coated with poly-D-lysine (10 μg/ml), and transport was measured 24 hours later.
After 10 minutes the medium was removed and unlabeled drugs in HBS were added (450 μl/well). […] Plates were incubated at 37° C. for 10 minutes, then washed rapidly 3× with ice-cold HBS, using a 24-position plate washer (Brandel, Gaithersburg, Mass.; model PW-12). Cells were solubilized with 0.05% sodium deoxycholate/0.1N NaOH (0.25 ml/well), an aliquot neutralized with 1N HCl, and radioactivity was determined by scintillation counting. Protein was quantified in an aliquot of the solubilized cells using a BIO-RAD protein assay kit, according to the manufacturer's directions.

O-2A/Type 2 astrocytes = assay: [3H]GABA uptake in O-2A/Type 2 astrocyte cultures; assay type: cell-based, rat
Method: Preparation of primary rat astrocyte cell cultures: Primary glial cultures were established from newborn Sprague-Dawley rat brains. Brains minus cerebella were removed aseptically and carefully dissected free of meninges. […] The cells were dissociated by trituration through a serological pipette. Separate procedures were then used for the preparation of Type-1 and O-2A/Type-2 astrocyte cultures, as will now be described.
For the preparation of Type-1 astrocyte cultures, cells were plated onto uncoated 75 cm^2 flasks at low density (1 brain per 10 flasks, or approximately 8×10^4 cells/cm^2). The medium was changed the following day and twice a week thereafter. […] Cultures highly enriched in O-2A/Type-2 cells were prepared from mixed astrocyte cultures which consisted of a monolayer of Type 1 cells upon which rested large numbers of O-2A/Type 2 cells. […] The same brain cell suspensions as described above were plated at high density (1 brain per 75 cm^2 flask, or approximately 8×10^5 cells/cm^2) into flasks coated with poly-D-lysine (10 μg/ml). After 24 hours the medium was replaced and the cultures were subsequently fed twice a week. […] Complete medium was added to the flasks and the cell suspension was removed gently, care being taken to not disrupt the underlying Type 1 astrocyte monolayer. The cells were pelleted at low speed, resuspended in complete medium, and added to 24-well plates coated with poly-D-lysine (10 μg/ml). […] No attempt was made to distinguish or separate O-2A precursors from the more differentiated Type 2 astrocytes.

hBGT-1 = molecular target: T3, hBGT-1 (Homo sapiens, UniProt P48065); assay: [3H]GABA uptake, full competition curves at cloned hBGT-1 (transient transfection, COS cells); assay type: cell-based; design: expressed in transfected cells; host or cells: COS cells, transient (DEAE-dextran)
T3 sequence (P48065 1-614): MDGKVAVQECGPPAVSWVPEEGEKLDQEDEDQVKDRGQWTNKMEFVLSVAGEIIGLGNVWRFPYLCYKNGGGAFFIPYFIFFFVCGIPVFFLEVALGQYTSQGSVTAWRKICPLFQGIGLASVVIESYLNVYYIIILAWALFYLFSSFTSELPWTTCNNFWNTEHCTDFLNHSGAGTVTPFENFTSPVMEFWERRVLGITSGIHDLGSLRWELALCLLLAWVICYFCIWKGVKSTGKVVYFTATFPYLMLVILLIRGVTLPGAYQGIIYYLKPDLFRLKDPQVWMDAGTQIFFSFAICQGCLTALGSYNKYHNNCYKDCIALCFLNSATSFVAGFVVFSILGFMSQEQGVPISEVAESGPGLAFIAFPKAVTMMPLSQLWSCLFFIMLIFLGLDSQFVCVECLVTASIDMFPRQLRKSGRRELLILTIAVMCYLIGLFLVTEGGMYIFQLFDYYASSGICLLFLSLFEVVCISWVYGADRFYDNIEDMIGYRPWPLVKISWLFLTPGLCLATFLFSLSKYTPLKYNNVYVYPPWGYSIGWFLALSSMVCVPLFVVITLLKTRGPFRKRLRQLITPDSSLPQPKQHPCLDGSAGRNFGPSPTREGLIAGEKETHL

rat brain aggregates = assay: [3H]GABA uptake by brain aggregates; assay type: cell-based
Method: Briefly, adult rat brains were removed from the skull and the cerebral cortex was dissected and placed in ice-cold HBS. […] The preparation was washed once by centrifugation, then resuspended in HBS.
The filters were washed with ice-cold HBS, punched into vials, and radioactivity determined by scintillation counting. Protein was determined in an aliquot of the aggregate preparation using the BIO-RAD protein assay kit.

[1] = COS, read-out: % Inhibition of [3H]GABA uptake, GAT-3
[2] = Rattus norvegicus, Astrocyte, 3 h, read-out: IC50 for inhibition of [3H]GABA uptake, O-2A/Type 2 astrocytes with NNC-711, in the presence of 10 μM NNC-711
[3] = Rattus norvegicus, Astrocyte, 3 h, read-out: IC50 for inhibition of [3H]GABA uptake, O-2A/Type 2 astrocytes, absence of NNC-711
[4] = Rattus norvegicus, read-out: IC50 for inhibition of [3H]GABA uptake, rat brain aggregates, control
[5] = read-out: IC50 for inhibition of [3H]GABA uptake, rGAT-3 (Table 8), full competition curves, 50 nM [3H]GABA
[6] = read-out: IC50 for inhibition of [3H]GABA uptake, O-2A/Type 2 astrocytes with NNC-711, in the presence of 10 μM NNC-711
[7] = read-out: IC50 for inhibition of [3H]GABA uptake, O-2A/Type 2 astrocytes, absence of NNC-711
[8] = read-out: IC50 for inhibition of [3H]GABA uptake, hBGT-1 (Table 8), full competition curves, 50 nM [3H]GABA
[9] = read-out: IC50 for inhibition of [3H]GABA uptake, rat brain aggregates, control, absence of NNC-711
[10] = read-out: IC50 for inhibition of [3H]GABA uptake, rat brain aggregates, with NNC-711, in the presence of 10 μM NNC-711

Compound | inhibition at 100 µM (GAT-3; [1]) [%] | IC50 (rat GAT-3) [µM] | IC50 (O-2A/Type 2 astrocytes; [2]) [µM] | IC50 (O-2A/Type 2 astrocytes; [3]) [µM] | IC50 (hBGT-1) [µM] | IC50 (rat brain aggregates; [4]) [µM] | IC50 (rat GAT-3; [5]) [µM] | IC50 (O-2A/Type 2 astrocytes; [6]) [µM] | IC50 (O-2A/Type 2 astrocytes; [7]) [µM] | IC50 (hBGT-1; [8]) [µM] | IC50 (rat brain aggregates; [10]) [µM] | other results
N[C@@H]1CCC[C@H](C(=O)O)C1 (relative stereo) [ACHC, cis-3-aminocyclohexanecarboxylic acid] | 0 | 55100 | 2360 | ~35 | 1070 | 31 | – | – | – | – | – | IC50 (O-2A/Type 2 astrocytes; Rattus norvegicus, Astrocyte, read-out: IC50 for GABA transport, O-2A/Type 2 astrocytes, in the presence of 10 μM NNC-711): ~2000 µM
NCCCC(=O)O [GABA, gamma-aminobutyric acid] | – | 33 ± 10 | – | – | – | – | – | – | – | – | – | VMAX of GABA transport, COS/rB8b and/or COS/K438-rB8b (GAT-3) (GAT-3; various concentrations of [3H]GABA, 30 seconds): 3.0±0.9 nmoles/mg protein
NCCS(=O)O [hypotaurine] | – | 73 ± 7 | 29 ± 15 | 620 | 536 ± 41 | 692 ± 100 | – | – | – | – | – | –
NCCS(=O)(=O)O [taurine, 2-aminoethanesulfonic acid] | – | 2860 | – | 13000 | 13200 | 67000 | – | – | – | – | – | –
N=C(N)NCCS(=O)(=O)O [GES, guanidinoethanesulfonic acid] | – | – | – | – | – | – | 915 ± 49 | 603 ± 300 | 1560 | 4800 | 410 ± 100 | IC50 (rat brain aggregates; [9]): 1340 µM
NCC[C@H](N)C(=O)O [L-DABA, L-(2,4)diaminobutyric acid] | 4 ± 1 | 710 ± 237 | 91 ± 30 | 74 | 528 ± 62 | 22 ± 3 | – | – | – | – | – | –
O=C(O)C1=CCCNC1 [guvacine] | – | 378 ± 175 | – | – | 1420 | 10 ± 2 | – | – | – | – | – | inhibition at 10 µM (GAT-3; [1]): 8 ± 5%; IC50 (O-2A/Type 2 astrocytes; Rattus norvegicus, Astrocyte, 3 h, read-out: IC50 for inhibition of [3H]GABA uptake, O-2A/Type 2 astrocytes): 8 ± 0.9 µM
NCCC(=O)O [β-alanine] | 70 ± 1 | 110 ± 40 | ~25 | 2030 | 1100 | – | – | 24 ± 8 | – | – | – | IC50 (O-2A/Type 2 astrocytes; Rattus norvegicus, Astrocyte, read-out: IC50 for GABA transport, O-2A/Type 2 astrocytes): ~2000 µM; IC50 (rat brain aggregates; Rattus norvegicus, read-out: IC50 for GABA transport, brain aggregates): 3000 µM; IC50 (rat brain aggregates; Rattus norvegicus, read-out: IC50 for inhibition of [3H]GABA uptake, rat brain aggregates, control, absence of NNC-711): 2930 µM; IC50 (rat brain aggregates; Rattus norvegicus, read-out: IC50 for inhibition of [3H]GABA uptake, rat brain aggregates, with NNC-711, in the presence of 10 μM NNC-711): 33 µM
hydroxynipecotic acid [OH-nipecotic] | – | – | – | – | – | – | 467 ± 53 | 197 ± 20 | 17 ± 3 | 3840 | 69 ± 10 | % Inhibition of [3H]GABA uptake, GAT-3 (GAT-3; inhibitor 10 μM, 50 nM [3H]GABA, 10 minutes, 37° C.): 5 ± 2 (3) %; IC50 (rat brain aggregates; [9]): 10 ± 1 µM
O=C(O)C1=CCCN(CCON=C(c2ccccc2)c2ccccc2)C1 [NNC-711] | – | – | – | – | – | – | 349 ± 151 | – | 0.07 | 3570 | 323 ± 70 | IC50 (rat GAT-3; read-out: IC50 for inhibition of [3H]GABA uptake, rat GAT-3, transient transfection, 50 nM [3H]GABA): 349 ± 151 µM; specific [3H]GABA uptake that persisted, O-2A/Type 2 astrocytes (O-2A/Type 2 astrocytes; NNC-711 at 10 μM): 26±4%; [3H]GABA uptake that persists, rat brain aggregates (rat brain aggregates; NNC-711 at 10 μM): 15±2%; IC50 (rat brain aggregates; read-out: IC50 for GABA uptake, rat brain aggregates): 0.09 µM
